Test results: US11357749B2, “Methods for treating neutropenia” (Enzychem Lifesciences Corporation, priority 2014, dated 2022)

Columns and labels:
C3 [1] = assay: C3 mRNA (RT-PCR) in HepG2 cells; type: cell-based, human; conditions: HepG2, 10 and 100 microgram/ml of S6I, compared with PLAG
Experimental: A liver cell line, HepG2 (American Type Culture Collection, ATCC, Rockville, Md.), is incubated and maintained at 37° C., 5% CO2 humid atmosphere in DMEM medium. When HepG2 cells, which are known to produce complement in culture, are treated with PLAG, the activity of complement is reduced effectively, as confirmed by RT-PCR of mRNA. In the RT-PCR, 5×10^5 number of HepG2 cells/ml are distributed into 12 well plates and induced C3 for 12 hours with 10% FCS. Then PLAG is added and further cultured for 2 hours. Cells are harvested and mRNA is isolated and RT-PCR is carried out with specific primer of C3; GAPDH is used as an internal control.

C3 [2] = assay: C3 expression (RT-PCR) in IL-4/TNF-α treated HMC-1 cells; type: cell-based, human; conditions: HMC-1 cells treated with IL-4 and TNF-α; PLAG 0.1 and 1 μg/mL
Experimental: A blood cell line, HMC-1 (human mast cell, American Type Culture Collection, ATCC, Rockville, Md.) is incubated and maintained at 37° C. under 5% CO2 humid conditions. The medium is IMDM (Life Technologies, Karlsruhe, Germany) containing 10% Fetal Calf Serum (FCS, HyClone, Logan, Utah), 2 mM […], 100 μg/ml penicillin, 100 μg/ml streptomycin (Life Technologies). The cultured HMC-1 cells (1×10^6 cell/ml) are pre-treated with 0.1 and 1 μg/mL concentration of PLAG, followed by treating with IL-4 (5 ng) and/or TNF-α (10 ng) to induce cellular activities.
The expressed C3 and its mRNA level change are observed by using RT-PCR (Reverse Transcriptase Polymerase Chain Reaction). The RT-PCR is carried out as follows: the total RNA is separated by the standard protocol and cDNA is synthesized using AccuScript High Fidelity 1st Strand cDNA Synthesis Kit (Stratagene) by the manufacturer's instructions. Two-step RT-PCR reaction is conducted using Oligo-dT primer and reverse transcriptase, pair of primer and Taq polymerase (Takara, Shiga, Japan). […] The product of PCR is separated using 1.5% agarose gel, dyed with ethidium bromide (EtBr), and visualized with Gel Doc 2000 UV trans-illuminator (Bio-Rad Laboratories, Hercules, Calif., USA), and the experimental data is analyzed using Quantity One software (Bio-Rad Laboratories).

[3] = system: white blood cells and neutrophils; assay: Cyclophosphamide-induced neutropenia in mice, G-CSF with or without PLAG; type: in vivo; conditions: mice, cyclophosphamide 100 mpk i.p. ten days; G-CSF 0.25 mpk i.p.; PLAG 25 mpk p.o.
Excerpt: Mice receive cyclophosphamide (100 mpk, i.p.) for a period of ten days, with or without G-CSF (0.25 mpk, i.p.) or G-CSF (0.25 mpk, i.p.) plus PLAG (25 mpk, p.o.): […]

Row | Molecule | C3 expression (RT-PCR) (C3 [1]) | expression of C3 (C3 [2]) | Neutrophils [3] | White blood cells (WBCs) [3]
1 | NC(=O)c1cnc(NCCc2ccc(O)c(Cl)c2)nc1NCc1ccccc1 [S6I, reference compound] | comparable | suppresses expression of C3 | – | –
2 | G-CSL: Granulocyte-colony stimulating factor, glycoprotein that stimulates hematopoietic precursor cells; 0.25 mpk i.p. in mice (protein, UniProt P09920 31-208, looked up) Granulocyte …: VPLVTVSALPPSLPLPRSFLLKSLEQVRKIQASGSVLLEQLCATYKLCHPEELVLLGHSLGIPKASLSGCSSQALQQTQCLSQLHSGLCLYQGLLQALSGISPALAPTLDLLQLDVANFATTIWQQMENLGVAPTVQPTQSAMPAFTSAFQRRAGGVLAISYLQGFLETARLALHHLA | – | – | 4.36 k/μl | 5.37 k/μl
